This passage reports efflux ratio and IC50 results from patent US20230002361A1, “2H-INDAZOLE DERIVATIVES AND THEIR USE IN THE TREATMENT OF DISEASE” (BIOGEN MA INC., priority 2019, published 2023).

Structures can show the parent of a compound that is named as a salt. Where two headings read alike, the source gives them in different places.

The target of one series is T1, MDR1 (P-gp) (Homo sapiens, UniProt P08183).
T1 construct: host or cells: MDCK cells
Description: MDR1-MDCK assay (efflux ratio). The conditions noted are these: human, MDCK-MDR1, 1 μM compound, 120 minutes incubation; read-out: MDR1-MDCK Efflux Ratio; (B-A/A-B). Format: in vitro ADME. In outline:
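Human MDR1-transfected MDCK monolayers, cultured 7 days on transwell inserts with TEER checked, were dosed with compound at 1 μM in HBSS-HEPES. Transport was measured in both A-B and B-A directions. Efflux ratio came from the directional permeabilities, with mass balance also calculated.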

Another series deals with T2, IRAK4 (Homo sapiens, UniProt Q9NWZ3).
T2 construct: with 0.1 nM IRAK4, 1.6 μM of biotinylated peptide substrate and 10 μM ATP
T2 sequence (Q9NWZ3 1-460): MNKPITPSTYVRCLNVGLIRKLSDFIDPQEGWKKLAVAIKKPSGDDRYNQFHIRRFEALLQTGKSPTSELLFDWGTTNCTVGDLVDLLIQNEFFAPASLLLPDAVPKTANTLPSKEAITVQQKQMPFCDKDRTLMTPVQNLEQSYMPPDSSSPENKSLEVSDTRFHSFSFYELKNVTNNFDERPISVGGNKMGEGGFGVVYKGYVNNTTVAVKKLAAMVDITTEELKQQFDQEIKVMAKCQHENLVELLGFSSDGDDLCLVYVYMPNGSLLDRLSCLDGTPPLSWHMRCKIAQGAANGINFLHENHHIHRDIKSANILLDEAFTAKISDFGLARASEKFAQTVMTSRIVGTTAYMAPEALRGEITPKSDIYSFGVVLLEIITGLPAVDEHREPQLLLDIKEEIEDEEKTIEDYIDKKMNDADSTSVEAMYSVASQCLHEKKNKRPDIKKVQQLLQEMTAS
Description: IRAK4 MSD Biochemical Assay (1 mM ATP, 2 h). The note with it: room temperature. The method, boiled down: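 Run with 1 mM ATP and […] for 2 h, then quenched with EDTA, pH 8. The phosphorylated biotinylated peptide was captured on streptavidin plates and detected with anti-phospho-threonine antibody plus Sulfo-Tag secondary by MSD electrochemiluminescence.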

Setting [1] is: read-out: IRAK4 MSD Biochemical Assay (1 mM ATP, 2 h) IC50.

T1 sequence (P08183 whole entry): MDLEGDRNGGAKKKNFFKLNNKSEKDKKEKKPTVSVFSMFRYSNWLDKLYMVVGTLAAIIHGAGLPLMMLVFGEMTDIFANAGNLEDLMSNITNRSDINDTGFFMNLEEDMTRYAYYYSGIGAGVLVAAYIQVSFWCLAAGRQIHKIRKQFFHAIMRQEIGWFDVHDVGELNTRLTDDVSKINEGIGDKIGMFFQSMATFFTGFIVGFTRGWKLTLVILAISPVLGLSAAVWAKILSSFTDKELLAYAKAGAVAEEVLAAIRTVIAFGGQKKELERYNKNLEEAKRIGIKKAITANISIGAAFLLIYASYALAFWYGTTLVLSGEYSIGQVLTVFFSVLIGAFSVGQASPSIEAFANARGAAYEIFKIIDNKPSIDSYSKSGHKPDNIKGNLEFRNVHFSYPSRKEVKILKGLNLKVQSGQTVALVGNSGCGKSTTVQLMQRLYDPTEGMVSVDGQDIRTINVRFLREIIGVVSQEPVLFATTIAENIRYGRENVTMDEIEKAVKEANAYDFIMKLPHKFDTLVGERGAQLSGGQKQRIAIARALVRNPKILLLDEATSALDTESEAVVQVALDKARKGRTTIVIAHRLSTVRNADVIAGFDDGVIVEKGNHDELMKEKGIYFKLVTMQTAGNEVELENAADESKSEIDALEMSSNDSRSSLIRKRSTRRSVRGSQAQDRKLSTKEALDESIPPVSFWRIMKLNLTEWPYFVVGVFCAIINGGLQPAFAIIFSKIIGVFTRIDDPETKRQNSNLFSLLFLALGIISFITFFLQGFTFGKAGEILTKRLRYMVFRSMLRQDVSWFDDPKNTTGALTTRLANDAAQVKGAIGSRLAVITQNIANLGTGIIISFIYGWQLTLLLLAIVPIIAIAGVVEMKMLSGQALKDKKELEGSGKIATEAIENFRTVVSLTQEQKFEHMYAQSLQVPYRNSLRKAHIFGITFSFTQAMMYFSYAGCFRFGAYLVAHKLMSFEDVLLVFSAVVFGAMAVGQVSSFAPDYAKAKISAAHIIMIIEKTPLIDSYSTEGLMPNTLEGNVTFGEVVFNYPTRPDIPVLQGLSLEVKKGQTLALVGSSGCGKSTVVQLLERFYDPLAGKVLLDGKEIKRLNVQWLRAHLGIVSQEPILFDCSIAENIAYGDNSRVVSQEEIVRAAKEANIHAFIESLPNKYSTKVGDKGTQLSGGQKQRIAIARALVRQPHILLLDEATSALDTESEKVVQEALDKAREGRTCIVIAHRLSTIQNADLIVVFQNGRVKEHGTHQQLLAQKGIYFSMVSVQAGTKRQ

For the compound `CC(C)Oc1nc2nn(CC3CCOC3)cc2cc1C(=O)Nc1cc(F)cn(C)c1=O` (stereo not shown) [Example 81, N-(5-fluoro-1-methyl-2-oxo-1,2-dihydroxypyridin-3-yl)-6-isopropxy-2-((tetrahydrofuran-3-yl)methyl)-2H-pyrazolo[3,4-b]pyridine-5-carboxamide], the efflux ratio at 120 min, 1 μM on MDR1 (P-gp) was determined as 5.9. In addition, the IC50 at IRAK4 (setting [1]) was found to be 9.9 nM.

Take `COc1cccc(NC(=O)c2cc3cn(CC4CCOC4)nc3cn2)n1.O=C(O)C(F)(F)F` (stereo not shown) [Example 7, N-(6-methoxypyridin-2-yl)-2-((tetrahydrofuran-3-yl)methyl)-2H-pyrazolo[3,4-c]pyridine-5-carboxamide Trifluoroacetate]: the efflux ratio at 120 min, 1 μM on MDR1 (P-gp) stood at 0.6. Further, on IRAK4 (setting [1]), the IC50 turned out to be 1390 nM.

In the case of `O=C(Nc1ccn(C(F)F)n1)c1cc2cn(C[C@H]3CCOC3)nc2nc1OC1CCCC1` (single isomer, unassigned) [Example 116], the efflux ratio at 120 min, 1 μM on MDR1 (P-gp) amounted to 2.5. Moreover, the IC50 at IRAK4 (setting [1]) stood at 3.8 nM.

Take `CC(C)Oc1nc2nn(C[C@@H]3CCOC3)cc2cc1C(=O)Nc1cccc2ccnn12` (single isomer, unassigned) [Example 52]: at MDR1 (P-gp), the efflux ratio at 120 min, 1 μM amounted to 1. On IRAK4 (setting [1]), the IC50 is 1 nM.

In the case of `COc1cccc(NC(=O)c2cc3cn(C[C@H]4CCOC4)nc3cc2OC)n1` (single isomer, unassigned) [Example 23], the efflux ratio at 120 min, 1 μM at MDR1 (P-gp) was 0.8. Further, the IC50 on IRAK4 (setting [1]) amounted to 51.3 nM.

With `CC12CC(n3cc4cc(C(=O)Nc5cccn(C(F)F)c5=O)c(OC5CCC5)cc4n3)(CO1)C2` [Example 84, 6-Cyclobutoxy-N-(1-(difluoromethyl)-2-oxo-1,2-dihydropyridin-3-yl)-2-(1-methyl-2-oxabicyclo[2.1.1]hexan-4-yl)-2H-indazole-5-carboxamide trifluoroacetate], the efflux ratio at 120 min, 1 μM at MDR1 (P-gp) worked out at 0.9. In addition, the IC50 at IRAK4 (setting [1]) was 0.5 nM.

As to `CC(C)Oc1nc2nn(C3CCOC3)cc2cc1C(=O)Nc1cnn2cccnc12` (stereo not shown) [Example 37, 6-Isopropoxy-N-(pyrazolo[1,5-a]pyrimidin-3-yl)-2-(tetrahydrofuran-3-yl)-2H-pyrazolo[3,4-b]pyridine-5-carboxamide], on MDR1 (P-gp), the efflux ratio at 120 min, 1 μM is 2.2. In addition, at IRAK4 (setting [1]), the IC50 turned out to be 6.4 nM.

With `CC(C)Oc1nc2nn([C@@H]3CCCOC3)cc2cc1C(=O)Nc1cnn2cccnc12` (single isomer, unassigned) [Example 120], the efflux ratio at 120 min, 1 μM on MDR1 (P-gp) amounted to 0.9. For the same compound, at IRAK4 (setting [1]), the IC50 turned out to be 0.5 nM.

For the compound `Cc1cnc2c(NC(=O)c3cc4cn(C56COC(C)(C5)C6)nc4cc3OC(C)C)cnn2c1` [Example 94, 6-Isopropoxy-2-(1-methyl-2-oxabicyclo[2.1.1]hexan-4-yl)-N-(6-methylpyrazolo[1,5-a]pyrimidin-3-yl)-2H-indazole-5-carboxamide], the efflux ratio at 120 min, 1 μM at MDR1 (P-gp) came to 1.4. For the same compound, the IC50 at IRAK4 (setting [1]) is 1.3 nM.

Turning to `Cc1cccc(NC(=O)c2cc3cn(C4CCOCC4)nc3cc2OC(C)C)c1F` [Example 68, N-(2-fluoro-3-methylphenyl)-6-isopropoxy-2-(tetrahydro-2H-pyran-4-yl)-2H-indazole-5-carboxamide], on MDR1 (P-gp), the efflux ratio at 120 min, 1 μM came to 1.4. Moreover, the IC50 on IRAK4 (setting [1]) stood at 2 nM.

`CC(C)Oc1c(C(=O)Nc2cccc(C(F)F)n2)cc2cn(C3CCOCC3)nc2c1Cl` [Example 124, 7-Chloro-N-(6-(difluoromethyl)pyridin-2-yl)-6-isopropoxy-2-(tetrahydro-2H-pyran-4-yl)-2H-indazole-5-carboxamide Trifluoroacetate]: the efflux ratio at 120 min, 1 μM at MDR1 (P-gp) came out at 1.1. Besides, at IRAK4 (setting [1]), the IC50 came to 20 nM.

In the case of `CC(C)Oc1cc2nn(CC34COC(C)(C3)C4)cc2cc1C(=O)Nc1cccc(C(F)F)n1.Cl` [Example 27, N-(6-(difluoromethyl)pyridin-2-yl)-6-isopropoxy-2-((1-methyl-2-oxabicyclo[2.1.1]hexan-4-yl)methyl)-2H-indazole-5-carboxamide hydrochloride], the efflux ratio at 120 min, 1 μM at MDR1 (P-gp) is 1.3. The half-maximal inhibitory concentration (IC50) at IRAK4 (setting [1]) was determined as 5.4 nM.

Regarding `CC(C)Oc1cc2nn(C34COC(C)(C3)C4)cc2cc1C(=O)Nc1cnn2cccnc12` [Example 93, 6-Isopropoxy-2-(1-methyl-2-oxabicyclo[2.1.1]hexan-4-yl)-N-(pyrazolo[1,5-a]pyrimidin-3-yl)-2H-indazole-5-carboxamide], at MDR1 (P-gp), the efflux ratio at 120 min, 1 μM was 1.4. The IC50 on IRAK4 (setting [1]) turned out to be 0.4 nM.

On to `CC(C)Oc1cc2nn([C@@H]3CCOC(C)(C)C3)cc2cc1C(=O)Nc1cccc(C(F)F)n1` (single isomer, unassigned) [Example 46], for which, on MDR1 (P-gp), the efflux ratio at 120 min, 1 μM is 1.2. Further, on IRAK4 (setting [1]), the IC50 amounted to 0.3 nM.

For `CC(C)Oc1cc2nn(C34COC(C)(C3)C4)cc2cc1C(=O)Nc1cnn2cc(F)cnc12` [Example 96, N-(6-fluoropyrazolo[1,5-a]pyrimidine-3-yl)-6-isopropoxy-2-(1-methyl-2-oxabicyclo[2.1.1]hexan-4-yl)-2H-indazole-5-carboxamide trifluoroacetate], the efflux ratio at 120 min, 1 μM at MDR1 (P-gp) was 1.6. Also, the IC50 at IRAK4 (setting [1]) amounted to 1.4 nM.

Take `COC(C)(C)CCn1cc2cc(C(=O)Nc3cccc(C(F)F)n3)c(OC(C)C)cc2n1.Cl` [Example 29, N-(6-(difluoromethyl)pyridin-2-yl)-6-isopropoxy-2-(3-methoxy-3-methylbutyl)-2H-indazole-5-carboxamide hydrochloride]: the efflux ratio at 120 min, 1 μM at MDR1 (P-gp) was 0.8. For the same compound, the IC50 on IRAK4 (setting [1]) is 0.6 nM.

Turning to `COc1cc2nn(CC3CCOC3)cc2cc1C(=O)Nc1ccccn1.O=C(O)C(F)(F)F` (stereo not shown) [Example 2, 6-Methoxy-N-(pyridin-2-yl)-2-((tetrahydrofuran-3-yl)methyl)-2H-indazole-5-carboxamide trifluoroacetate], the efflux ratio at 120 min, 1 μM on MDR1 (P-gp) came to 1.7. In addition, the IC50 at IRAK4 (setting [1]) was 373 nM.

Turning to `CC(C)Oc1cc2nn(C34CCC(C)(CC3)OC4)cc2cc1C(=O)Nc1cccn(C)c1=O` [Example 58, 6-Isopropoxy-N-(1-methyl-2-oxo-1,2-dihydropyridin-3-yl)-2-(1-methyl-2-oxabicyclo[2.2.2]octan-4-yl)-2H-indazole-5-carboxamide Trifluoroacetate], at MDR1 (P-gp), the efflux ratio at 120 min, 1 μM came to 0.9. Further, on IRAK4 (setting [1]), the 50% inhibitory concentration (IC50) came out at 0.4 nM.

On to `COCCCn1cc2cc(C(=O)Nc3cccc(C(F)(F)F)n3)c(OC(C)C)nc2n1.Cl` [Example 60, 6-Isopropxy-2-(3-methoxypropyl)-N-(6-(trifluoromethyl)pyridin-2-yl)-2H-pyrazolo[3,4-b]pyridine-5-carboxamide hydrochloride], for which the efflux ratio at 120 min, 1 μM on MDR1 (P-gp) is 1.5. Moreover, the IC50 at IRAK4 (setting [1]) is 2.2 nM.

Turning to `CC(C)Oc1cc2nn(CCC(C)(C)O)cc2cc1C(=O)Nc1cccc(C(F)F)n1` [Example 13, N-(6-(difluoromethyl)pyridin-2-yl)-2-(3-hydroxy-3-methylbutyl)-6-isopropoxy-2H-indazole-5-carboxamide], the efflux ratio at 120 min, 1 μM on MDR1 (P-gp) was determined as 1.7. Besides, the IC50 at IRAK4 (setting [1]) amounted to 0.4 nM.

On to `COc1cccc(NC(=O)c2cc3cn(C4CCOCC4)nc3cc2OC)n1.O=C(O)C(F)(F)F` [Example 5, 6-Methoxy-N-(6-methoxypyridin-2-yl)-2-(tetrahydro-2H-pyran-4-yl)-2H-indazole-5-carboxamide trifluoroacetate], for which the efflux ratio at 120 min, 1 μM on MDR1 (P-gp) was found to be 0.6. Further, the IC50 at IRAK4 (setting [1]) was 21 nM.

For the compound `CC12CCC(n3cc4cc(C(=O)Nc5ccn(C(F)F)n5)c(OC5CCC5)cc4n3)(CC1)CO2` [Example 139, 6-cyclobutoxy-N-(1-(difluoromethyl)-1H-pyrazol-3-yl)-2-(1-methyl-2-oxabicyclo[2.2.2]octan-4-yl)-2H-indazole-5-carboxamide], the efflux ratio at 120 min, 1 μM at MDR1 (P-gp) was found to be 0.8. In addition, the IC50 at IRAK4 (setting [1]) is 0.9 nM.

Consider `Cn1cccc(NC(=O)c2cc3cn(C45COC(C)(C4)C5)nc3cc2OC2CCC2)c1=O` [Example 83, 6-Cyclobutoxy-N-(1-methyl-2-oxo-1,2-dihydropyridin-3-yl)-2-(1-methyl-2-oxabicyclo[2.1.1]hexan-4-yl)-2H-indazole-5-carboxamide trifluoroacetate], for which the efflux ratio at 120 min, 1 μM on MDR1 (P-gp) is 1.2. In addition, at IRAK4 (setting [1]), the IC50 was 1.4 nM.

For the compound `O=C(Nc1ccn(C(F)F)n1)c1cc2cn(C[C@@H]3CCOC3)nc2nc1OC1CCCC1` (single isomer, unassigned) [Example 117], the efflux ratio at 120 min, 1 μM on MDR1 (P-gp) was found to be 2.6. Also, on IRAK4 (setting [1]), the IC50 worked out at 2 nM.

Turning to `CC(C)Oc1nc2nn(C[C@@H]3CCOC3)cc2cc1C(=O)Nc1cnn2cccnc12` (single isomer, unassigned) [Example 119], the efflux ratio at 120 min, 1 μM at MDR1 (P-gp) was determined as 3. The compound also showed an IC50 on IRAK4 (IRAK4 MSD Biochemical Assay (1 mM ATP, 2 h) IC50 (nM)) of 1 nM.

`COc1cccc(NC(=O)c2cc(OC)c3nn(CCC(C)(C)OC)cc3c2)n1.Cl` [Example 15, 7-Methoxy-2-(3-methoxy-3-methylbutyl)-N-(6-methoxypyridin-2-yl)-2H-indazole-5-carboxamide hydrochloride]: the efflux ratio at 120 min, 1 μM on MDR1 (P-gp) is 2.5. Besides, at IRAK4 (setting [1]), the IC50 was 124 nM.

The term IC50 denotes the concentration that gives 50% inhibition.
